Structures are written as SMILES.

The text below walks through data of ChEMBL document CHEMBL5137062, “Overview of Methionine Adenosyltransferase 2A (MAT2A) as an Anticancer Target: Structure, Function, and Inhibitors” (J Med Chem, 2022).

The target in assay [1] is T1, S-adenosylmethionine synthase isoform type-2 (Homo sapiens, UniProt P31153). Put plainly: Inhibition of human recombinant His-tagged MAT2A expressed in Escherichia coli expression system assessed as S-adenosyl methionine production using L-methionine as substrate incubated for 20 mins followed by L-methionine and ATP addition by malachite green phosphate assay.
The target in assay [2] is T1, S-adenosylmethionine synthase isoform type-2. Nature of the assay: Inhibition of human MAT2A expressed in baculovirus infected Sf9 cells expression system assessed as S-adenosyl methionine production using L-methionine as substrate pretreated for 60 mins followed by L-methionine and ATP addition.
The test system of assay [3] is HCT-116. Nature of the assay: Antiproliferative activity against human HCT-116 cells expressing MTAP assessed as cell growth inhibition incubated for 24 hrs by Cell Titer Glo analysis. Type of assay: functional, cell-based. Conditions: HCT-116, 24 h. A general note: ATP-based viability assays read luminescence as a measure of living cells.
Assay [4] concerns the target T1, S-adenosylmethionine synthase isoform type-2. Nature of the assay: Inhibition of MAT2A (unknown origin) assessed as S-adenosyl methionine production using L-methionine as substrate pretreated for 60 mins followed by L-methionine and ATP addition.
For assay [5] the target is unchanged. Put plainly: Inhibition of N-terminal TEV cleavable 6His-tagged human MAT2A (1 to 395 residues) expressed in Escherichia coli BL21 (DE3) cells assessed as S-adenosyl methionine production using L-methionine as substrate incubated for 30 mins followed by L-methionine and ATP addition by MS/MS analysis.
The target is the same in assay [6]. Nature of the assay: Inhibition of MAT2A in human NCI-H520 cells transfected with MAT2A empty vector assessed as inhibition of S-adenosyl methionine production measured after 6 hrs by Rapid Fire Mass Spectrometry analysis. Type of assay: cell-based.
Assay [7] shares this target. Nature of the assay: Inhibition of MAT2A in human Huh-7 cells assessed as inhibition of S-adenosyl methionine production measured after 6 hrs by Rapid Fire Mass Spectrometry analysis. It is filed as cell-based.
The target in assay [8] is S-adenosylmethionine synthase isoform type-1 (Homo sapiens) (UniProt Q00266). Put plainly: Inhibition of N-terminal TEV cleavable 6His-tagged human MAT1A (1 to 334 residues) expressed in Escherichia coli BL21 (DE3) cells assessed as S-adenosyl methionine production using L-methionine as substrate incubated for 30 mins followed by L-methionine and ATP addition by MS/MS analysis relative to control.

The target of assay [9] is T1, S-adenosylmethionine synthase isoform type-2. Put plainly: Inhibition of human MAT2A assessed as S-adenosyl methionine production using L-methionine as substrate pretreated for 60 mins followed by L-methionine and ATP addition by colorimetric analysis.
Assay [10] is described as follows: Antiproliferative activity against human HCT116-MTAP null cells assessed as cell growth inhibition measured after 6 days by Cell Titer Glo analysis. Type of assay: functional, cell-based. To be noted: 144 h.
The subject of assay [11] is HCT-116. Nature of the assay: Antiproliferative activity against human HCT-116 cells expressing MTAP assessed as cell growth inhibition measured after 6 days by Cell Titer Glo analysis. To be noted: HCT-116, 144 h. It is filed as functional, cell-based.
The nature of assay [12]: Antiproliferative activity against human HCT116-MTAP null cells assessed as cell growth inhibition incubated for 92 hrs by In-cell western analysis. Type of assay: functional, cell-based.
The nature of assay [13]: Inhibition of rat liver MAT isozymes assessed as S-adenosyl methionine production using L-methionine as substrate in presence of ATP. Type of assay: tissue-based.
Assay [14] is described as follows: Inhibition of rat novikoff liver hepatoma MAT isozymes assessed as S-adenosyl methionine production using L-methionine as substrate in presence of ATP. It is filed as tissue-based.

T1 sequence (P31153 whole entry, canonical isoform): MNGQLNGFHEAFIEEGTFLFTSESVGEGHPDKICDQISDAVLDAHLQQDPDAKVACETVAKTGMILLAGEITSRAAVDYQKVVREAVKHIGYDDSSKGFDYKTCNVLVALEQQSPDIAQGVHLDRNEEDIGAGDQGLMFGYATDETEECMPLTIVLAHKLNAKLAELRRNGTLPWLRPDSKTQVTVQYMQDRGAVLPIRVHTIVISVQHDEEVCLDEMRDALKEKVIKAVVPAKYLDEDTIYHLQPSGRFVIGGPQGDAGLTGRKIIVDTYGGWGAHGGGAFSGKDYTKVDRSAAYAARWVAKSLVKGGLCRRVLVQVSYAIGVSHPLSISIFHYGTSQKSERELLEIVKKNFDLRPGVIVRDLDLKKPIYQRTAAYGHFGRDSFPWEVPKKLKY
Chain of S-adenosylmethionine synthase isoform type-1 (Homo sapiens) (Q00266 whole entry, the tested form may be a part, canonical isoform): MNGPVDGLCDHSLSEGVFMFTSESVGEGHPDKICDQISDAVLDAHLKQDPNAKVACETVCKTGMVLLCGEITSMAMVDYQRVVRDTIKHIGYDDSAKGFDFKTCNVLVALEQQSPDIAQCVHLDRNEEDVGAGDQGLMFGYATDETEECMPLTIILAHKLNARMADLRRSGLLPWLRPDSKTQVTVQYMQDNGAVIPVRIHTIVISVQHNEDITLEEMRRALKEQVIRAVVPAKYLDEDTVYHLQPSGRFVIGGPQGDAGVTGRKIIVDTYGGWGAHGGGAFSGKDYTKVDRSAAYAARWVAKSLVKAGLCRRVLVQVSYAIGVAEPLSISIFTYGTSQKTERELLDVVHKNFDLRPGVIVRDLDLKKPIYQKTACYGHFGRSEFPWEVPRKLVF

Consider `CNc1ccc(/C=C/c2c(F)cccc2Cl)cc1`, for which, in [1], the IC50 amounted to 2.1 µM.

For the compound `CCNc1ccc2nn(-c3ccc4nc(C)n(C)c4c3)c(=O)c(-c3ccc(C(F)F)cc3)c2n1`, the figures for the IC50 in assay [2] and in assay [3] were less than 0.1 µM and more than 1 µM, respectively. `CCOc1ncc2cc(C3=CC4N=C(CCN5CCC(O)C5)N(C)C4C=C3)c(=O)n(-c3ccc(OC(F)F)cc3)c2n1` (stereo not given): in assay [4], the IC50 came out at 0.0047 µM. Regarding `CN(C)CCc1nnc2cc(-c3ccccc3)c3cc(Cl)ccc3n12`, the figures for the IC50 in assay [5], in [6] and in assay [7] were 0.42 µM, 1.2 µM and 0.225 µM, respectively. Further, in assay [8], the inhibition came to 50%. On to `Cc1cc(C)c(-c2cnc(NC(=O)c3cccc(Cn4cccn4)c3)n2C)cc1C`, for which, in assay [9], the IC50 was less than 0.5 µM.

Take `Cc1cc(-c2cnc(NC(=O)c3cccc(CN4CCCC4=O)c3)n2C)ccc1O`: the concentration for half-maximal inhibition (IC50) in assay [9] is less than 0.5 µM. In the case of `CCNc1ccc2nn(-c3ccc4nn(C)cc4c3)c(=O)c(-c3ccc(Cl)cc3)c2n1`, the half-inhibitory concentration (IC50) was less than 0.1 µM in assay [2] and more than 1 µM in assay [3]. With `Cn1cnc2ccc(-c3cc4cnc(NCC(F)(F)F)nc4n(-c4ccc(OC(F)F)cc4)c3=O)cc21`, the concentration for half-maximal inhibition (IC50) in assay [4] was 0.0365 µM; in assay [10], 0.102 µM; in [11], more than 10 µM. On to `COc1ccc(N2C(=O)N(c3ccc4nn(C)cc4c3)Cc3cnc(NCC(F)(F)F)nc32)cc1`, for which the results for the IC50 in assay [2] and in assay [3] were less than 0.1 µM and more than 1 µM, respectively. As to `Cc1cc(=O)n2nc(C)c(-c3ccccc3)c2[nH]1`, the IC50 in assay [2] turned out to be 0.008 µM; in [12], 0.009 µM. For `[2H]C([2H])([2H])Oc1ccc(N2C(=O)N(c3ccc4nn(C)cc4c3)Cc3cnc(OCC(F)F)nc32)cc1`, the 50% inhibitory concentration (IC50) was less than 0.1 µM in [2] and more than 1 µM in assay [3]. Turning to `Cc1cc(C)c(-c2cnc(NC(=O)c3cccc(Cn4ccccc4=O)c3)n2C)cc1Br`, in assay [9], the IC50 is less than 0.5 µM. Turning to `CCOc1ncc2cc(-c3ccc4ncn(C)c4c3)c(=O)n(-c3ccc(OC(F)F)cc3)c2n1`, the results for the 50% inhibitory concentration (IC50) in assay [4], in assay [10] and in assay [11] were 0.0195 µM, 0.0844 µM and 3.8 µM, respectively. Turning to `COc1ccc(-c2c(=O)n(-c3ccc4ncsc4c3)nc3ccc(OCC(F)F)nc23)cc1`, the figures for the IC50 in assay [2] and in assay [3] were less than 0.1 µM and more than 1 µM, respectively. Turning to `CN(C)c1ccc(/C=C/c2c(F)cccc2F)cc1`, the IC50 in assay [1] is 4.9 µM. Consider `NC1(C(=O)O)CCCC1` [CYCLOLEUCINE], for which the IC50 in [13] came out at 209 µM; in [14], 209 µM; in [6], 5600 µM; in assay [7] it was 1300 µM. Regarding `CCOc1ncc2cc(-c3ccc(OC)cc3C)c(=O)n(-c3ccc(OC(F)F)cc3)c2n1`, the IC50 in [4] was found to be 0.0701 µM. On to `COc1ccc(N2Cc3ccc(NCC(F)(F)F)nc3N(c3ccc(-c4ncn[nH]4)cc3)C2=O)cc1`, for which the IC50 in assay [2] is less than 0.1 µM; in [3], more than 1 µM.

As a reminder, the IC50 is the concentration that gives 50% inhibition. By inhibition is commonly meant the share of the control response that was lost under treatment.
